According to patent publication EP0554004A2, “Cephem compounds and antibacterial agents” (KATAYAMA SEIYAKUSYO CO. Ltd., priority 1992, dated 1993):
In brackets after ≈: the same amount, converted by molar mass.

What was measured:
Format in all cases: cell-based
[1] = test system: M. Morganii IFO3848; assay: MIC against standard strains (Test Example 3); conditions: Morganella morganii; M. Morganii IFO3848 (Test Example 3); read-out: MIC
How it was run: (§1)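 Read-out is the minimum concentration preventing visible bacterial growth on drug-containing Mueller-Hinton agar after overnight incubation at 37°C. Inocula were bacterial suspensions at 1 x 10^6 CFU/ml prepared from overnight Mueller-Hinton broth cultures at 37°C.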

[2] = test system: K. pneumoniae No. 42; assay: MIC against standard strains (Test Example 3); conditions: Klebsiella pneumoniae; K. pneumoniae No. 42 (Test Example 3); read-out: MIC
How it was run: as §1

[3] = test system: A. faecalis ATCC3750; assay: MIC against standard strains (Test Example 3); conditions: Alcaligenes faecalis; A. faecalis ATCC3750 (Test Example 3); read-out: MIC
How it was run: as §1

[4] = test system: S. aureus 209p JC-1; assay: MIC against standard strains (Test Example 3); conditions: Staphylococcus aureus; S. aureus 209p JC-1 (Test Example 3); read-out: MIC
How it was run: as §1

[5] = test system: P. vulugaris OX-19; assay: MIC against standard strains (Test Example 3); conditions: P. vulugaris OX-19 (Test Example 3); read-out: MIC
How it was run: as §1

[6] = test system: P. mirabilis IFO3849; assay: MIC against standard strains (Test Example 3); conditions: Proteus mirabilis; P. mirabilis IFO3849 (Test Example 3); read-out: MIC
How it was run: as §1

[7] = test system: S. aureus Smith; assay: MIC against standard strains (Test Example 3); conditions: Staphylococcus aureus; S. aureus Smith (Test Example 3); read-out: MIC
How it was run: as §1

[8] = test system: B. subtilis ATCC6633; assay: MIC against standard strains (Test Example 3); conditions: Bacillus subtilis; B. subtilis ATCC6633 (Test Example 3); read-out: MIC
How it was run: as §1

[9] = test system: S. epidemidis IAM1296; assay: MIC against standard strains (Test Example 3); conditions: S. epidemidis IAM1296 (Test Example 3); read-out: MIC
How it was run: as §1

[10] = test system: A. calcoaceticos T59; assay: MIC against standard strains (Test Example 3); conditions: A. calcoaceticos T59 (Test Example 3); read-out: MIC
How it was run: as §1

[11] = test system: P. aeruginosa NCTC10490; assay: MIC against standard strains (Test Example 3); conditions: Pseudomonas aeruginosa; P. aeruginosa NCTC10490 (Test Example 3); read-out: MIC
How it was run: as §1

[12] = test system: C. freundii ATCC8090; assay: MIC against standard strains (Test Example 3); conditions: Citrobacter freundii; C. freundii ATCC8090 (Test Example 3); read-out: MIC
How it was run: as §1

[13] = test system: S. aureus 195; assay: MIC against standard strains (Test Example 3); conditions: Staphylococcus aureus; S. aureus 195 (MRSA) (Test Example 3); read-out: MIC
How it was run: as §1

[14] = test system: K. pneumoniae IFO3317; assay: MIC against standard strains (Test Example 3); conditions: Klebsiella pneumoniae; K. pneumoniae IFO3317 (Test Example 3); read-out: MIC
How it was run: as §1

[15] = test system: Escherichia coli CSH2 (RK1); assay: MIC against standard strains (Test Example 1)
Method: (§2) By using each test strain cultured overnight at 37°C in a Muller-Hinton broth, there was prepared a bacterial solution with a bacterial cell population of 1 x 10^6 CFU/mi of the same bouillon. The bacterial solution was inoculated into the Muller-Hinton agar media each containing respectively one test agent and, after overnight incubation at 37°C, the minimum concentration that inhibited growth of the bacteria was determined and shown as MIC also in Table 1.
(§3) Staphylococcus aureus 167 and Staphylococcus aureus 195 used in the test were MRSA. CTM (cefotiam) and FMOX (flomoxef) were used as control agents.

[16] = test system: Pseudomonas aeruginosa NCTC 10490; assay: MIC against standard strains (Test Example 1); conditions: NCTC10490, Muller-Hinton agar, 37°C overnight
Method: as §2, §3

[17] = test system: Serratia marcescens IAM 1184; assay: MIC against standard strains (Test Example 1); conditions: IAM1184, Muller-Hinton agar, 37°C overnight
Method: as §2, §3

[18] = test system: Citrobacter freundii ATCC 8090; assay: MIC against standard strains (Test Example 1); conditions: ATCC8090, Muller-Hinton agar, 37°C overnight
Method: as §2, §3

[19] = test system: Staphylococcus aureus 167; assay: MIC against standard strains (Test Example 1); conditions: Staphylococcus aureus 167 (MRSA); Muller-Hinton agar, 37°C overnight
Method: as §2, §3

[20] = test system: Morganella morganii IFO 3848; assay: MIC against standard strains (Test Example 1); conditions: IFO3848, Muller-Hinton agar, 37°C overnight
Method: as §2, §3

[21] = test system: Escherichia coli CSH2 (RE45); assay: MIC against standard strains (Test Example 1)
Method: as §2, §3

[22] = test system: Bacillus subtilis ATCC 6633; assay: MIC against standard strains (Test Example 1); conditions: ATCC6633, Muller-Hinton agar, 37°C overnight
Method: as §2, §3

[23] = test system: Micrococcus luteus ATCC 9341; assay: MIC against standard strains (Test Example 1); conditions: ATCC9341, Muller-Hinton agar, 37°C overnight
Method: as §2, §3

[24] = test system: Proteus vulgalis OX-19; assay: MIC against standard strains (Test Example 1); conditions: Muller-Hinton agar, 37°C overnight
Method: as §2, §3

[25] = test system: Enterobacter cloacae ATCC 13407; assay: MIC against standard strains (Test Example 1); conditions: ATCC13407, Muller-Hinton agar, 37°C overnight
Method: as §2, §3

[26] = test system: Staphylococcus epidermidis IAM 1296; assay: MIC against standard strains (Test Example 1); conditions: IAM1296, Muller-Hinton agar, 37°C overnight
Method: as §2, §3

[27] = test system: Staphylococcus aureus 209P JC-1; assay: MIC against standard strains (Test Example 1); conditions: Muller-Hinton agar, 37°C overnight
Method: as §2, §3

[28] = test system: Staphylococcus aureus 195; assay: MIC against standard strains (Test Example 1); conditions: Staphylococcus aureus 195 (MRSA); Muller-Hinton agar, 37°C overnight
Method: as §2, §3

[29] = test system: Klebsiella pneumoniae IFO 3317; assay: MIC against standard strains (Test Example 1); conditions: IFO3317, Muller-Hinton agar, 37°C overnight
Method: as §2, §3

[30] = test system: Escherichia coli NIHJ JC-2; assay: MIC against standard strains (Test Example 1); conditions: NIHJJC2, Muller-Hinton agar, 37°C overnight
Method: as §2, §3

[31] = test system: Klebsiella pneumoniae No. 42; assay: MIC against standard strains (Test Example 1); conditions: Muller-Hinton agar, 37°C overnight
Method: as §2, §3

[32] = test system: Proteus mirabilis IFO 3849; assay: MIC against standard strains (Test Example 1); conditions: IFO3849, Muller-Hinton agar, 37°C overnight
Method: as §2, §3

[33] = test system: Staphylococcus aureus Smith; assay: MIC against standard strains (Test Example 1); conditions: Muller-Hinton agar, 37°C overnight
Method: as §2, §3

[34] = test system: Psuedomonas aeruginosa IFO 3445; assay: MIC against standard strains (Test Example 1); conditions: Muller-Hinton agar, 37°C overnight
Method: as §2, §3

CO[C@@]1(NC(=O)CSC(F)F)C(=O)N2C(C(=O)O)=C(CSc3nnnn3CCO)CO[C@@H]21 [FMOX, flomoxef, reference compound]
MIC [1]: 0.39 µg/mL (≈ 0.786 µM)
MIC [2]: 0.05 µg/mL (≈ 0.101 µM)
MIC [3]: 0.1 µg/mL (≈ 0.201 µM)
MIC [4]: 0.39 µg/mL (≈ 0.786 µM)
MIC [5]: 0.39 µg/mL (≈ 0.786 µM)
MIC [6]: 0.2 µg/mL (≈ 0.403 µM)
MIC [7]: 0.39 µg/mL (≈ 0.786 µM)
MIC [8]: 0.2 µg/mL (≈ 0.403 µM)
MIC [9]: 0.2 µg/mL (≈ 0.403 µM)
MIC [10]: 50 µg/mL (≈ 101 µM)
MIC [11]: > 100 µg/mL
MIC [12]: 0.39 µg/mL (≈ 0.786 µM)
MIC [13]: 3.13 µg/mL (≈ 6.3 µM)
MIC [14]: 0.025 µg/mL (≈ 0.0504 µM)
MIC [15]: 0.05 µg/mL (≈ 0.101 µM)
MIC [16]: > 100 µg/mL
MIC [17]: 0.2 µg/mL (≈ 0.403 µM)
MIC [18]: 0.39 µg/mL (≈ 0.786 µM)
MIC [19]: 100 µg/mL (≈ 201 µM)
MIC [20]: 0.39 µg/mL (≈ 0.786 µM)
MIC [21]: 0.1 µg/mL (≈ 0.201 µM)
MIC [22]: 0.2 µg/mL (≈ 0.403 µM)
MIC [23]: 0.2 µg/mL (≈ 0.403 µM)
MIC [24]: 0.39 µg/mL (≈ 0.786 µM)
MIC [25]: 25 µg/mL (≈ 50.4 µM)
MIC [26]: 0.2 µg/mL (≈ 0.403 µM)
MIC [27]: 0.39 µg/mL (≈ 0.786 µM)
MIC [28]: 6.25 µg/mL (≈ 12.6 µM)
MIC [29]: 0.05 µg/mL (≈ 0.101 µM)
MIC [30]: 0.05 µg/mL (≈ 0.101 µM)
MIC [31]: 0.1 µg/mL (≈ 0.201 µM)
MIC [32]: 0.2 µg/mL (≈ 0.403 µM)
MIC [33]: 0.39 µg/mL (≈ 0.786 µM)
MIC [34]: > 100 µg/mL
